Like-named read-outs stand apart in the source and are kept apart here.
What was measured:
human CYP1A2 = biological target: T1, human CYP1A2 (Homo sapiens, UniProt P05177)
T1 sequence (P05177 1-516): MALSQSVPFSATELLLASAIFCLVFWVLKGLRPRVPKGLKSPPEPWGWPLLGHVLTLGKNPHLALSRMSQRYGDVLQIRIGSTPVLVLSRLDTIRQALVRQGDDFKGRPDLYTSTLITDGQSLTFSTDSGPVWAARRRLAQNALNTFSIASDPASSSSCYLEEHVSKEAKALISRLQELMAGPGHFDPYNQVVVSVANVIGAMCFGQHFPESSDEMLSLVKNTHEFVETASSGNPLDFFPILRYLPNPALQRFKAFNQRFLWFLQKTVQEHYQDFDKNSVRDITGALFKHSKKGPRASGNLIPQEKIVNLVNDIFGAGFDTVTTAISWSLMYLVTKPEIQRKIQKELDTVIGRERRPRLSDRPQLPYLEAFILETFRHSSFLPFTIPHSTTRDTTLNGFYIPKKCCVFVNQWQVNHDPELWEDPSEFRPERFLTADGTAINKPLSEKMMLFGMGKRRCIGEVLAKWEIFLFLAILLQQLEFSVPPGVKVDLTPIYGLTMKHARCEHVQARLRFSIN

human CYP2C9 [1] = biological target: T2, human CYP2C9 (Homo sapiens, UniProt P11712)
human CYP2D6 = human CYP2D6 (Homo sapiens, UniProt P10635)
CYP3A4 = CYP3A4 (Homo sapiens, UniProt P08684); assay: biochemical
human CYP2C19 [2] = biological target: T3, human CYP2C19 (Homo sapiens, UniProt P33261)
human CYP2C19 [3] = biological target: T3, human CYP2C19; assay: biochemical
human CYP2C9 [4] = biological target: T2, human CYP2C9; assay: biochemical
[5] = CYP3A4 AC50 (half-maximal activity concentration)
[6] = CYP2C19 AC50 (half-maximal activity concentration)
[7] = CYP2C9 AC50 (half-maximal activity concentration)

Sequence of CYP3A4 (P08684 whole entry): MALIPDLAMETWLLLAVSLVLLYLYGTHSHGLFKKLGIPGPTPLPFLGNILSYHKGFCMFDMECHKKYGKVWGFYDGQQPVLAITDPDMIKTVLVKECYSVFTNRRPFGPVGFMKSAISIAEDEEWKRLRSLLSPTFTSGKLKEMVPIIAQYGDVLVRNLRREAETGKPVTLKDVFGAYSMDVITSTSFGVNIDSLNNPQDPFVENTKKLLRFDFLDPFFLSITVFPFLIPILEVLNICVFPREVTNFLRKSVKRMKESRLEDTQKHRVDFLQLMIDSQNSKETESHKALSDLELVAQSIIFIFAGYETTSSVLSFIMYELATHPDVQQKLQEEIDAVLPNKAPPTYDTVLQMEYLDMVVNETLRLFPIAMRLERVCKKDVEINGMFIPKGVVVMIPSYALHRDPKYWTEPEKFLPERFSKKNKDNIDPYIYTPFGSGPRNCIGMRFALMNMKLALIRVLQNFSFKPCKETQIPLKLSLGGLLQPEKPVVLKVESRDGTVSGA
T3 sequence (P33261 whole entry): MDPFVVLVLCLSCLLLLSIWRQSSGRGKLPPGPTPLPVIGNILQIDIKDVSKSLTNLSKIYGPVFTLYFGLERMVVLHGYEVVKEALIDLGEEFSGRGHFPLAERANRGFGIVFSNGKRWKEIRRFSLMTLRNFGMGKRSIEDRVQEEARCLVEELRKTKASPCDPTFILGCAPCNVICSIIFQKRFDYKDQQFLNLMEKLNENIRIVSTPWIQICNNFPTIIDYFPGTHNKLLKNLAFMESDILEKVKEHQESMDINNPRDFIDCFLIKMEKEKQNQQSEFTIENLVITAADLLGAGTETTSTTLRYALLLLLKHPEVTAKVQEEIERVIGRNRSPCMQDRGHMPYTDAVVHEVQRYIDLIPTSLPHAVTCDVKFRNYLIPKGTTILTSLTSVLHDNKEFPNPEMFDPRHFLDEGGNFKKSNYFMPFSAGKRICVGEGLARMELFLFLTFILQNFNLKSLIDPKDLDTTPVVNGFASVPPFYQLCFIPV
Sequence of human CYP2D6 (P10635 whole entry): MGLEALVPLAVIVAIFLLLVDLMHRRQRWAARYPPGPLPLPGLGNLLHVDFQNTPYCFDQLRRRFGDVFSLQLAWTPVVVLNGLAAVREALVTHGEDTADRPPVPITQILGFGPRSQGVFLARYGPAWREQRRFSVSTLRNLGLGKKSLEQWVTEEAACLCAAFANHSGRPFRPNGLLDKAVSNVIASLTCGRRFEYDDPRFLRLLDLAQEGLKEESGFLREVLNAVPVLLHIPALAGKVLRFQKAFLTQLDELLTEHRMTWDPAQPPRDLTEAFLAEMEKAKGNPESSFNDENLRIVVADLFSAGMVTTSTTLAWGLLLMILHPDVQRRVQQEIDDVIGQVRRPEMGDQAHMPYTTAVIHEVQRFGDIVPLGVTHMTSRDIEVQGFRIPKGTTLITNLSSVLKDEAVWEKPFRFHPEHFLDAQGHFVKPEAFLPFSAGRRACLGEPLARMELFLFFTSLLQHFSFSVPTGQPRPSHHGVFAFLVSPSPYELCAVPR
T2 sequence (P11712 whole entry): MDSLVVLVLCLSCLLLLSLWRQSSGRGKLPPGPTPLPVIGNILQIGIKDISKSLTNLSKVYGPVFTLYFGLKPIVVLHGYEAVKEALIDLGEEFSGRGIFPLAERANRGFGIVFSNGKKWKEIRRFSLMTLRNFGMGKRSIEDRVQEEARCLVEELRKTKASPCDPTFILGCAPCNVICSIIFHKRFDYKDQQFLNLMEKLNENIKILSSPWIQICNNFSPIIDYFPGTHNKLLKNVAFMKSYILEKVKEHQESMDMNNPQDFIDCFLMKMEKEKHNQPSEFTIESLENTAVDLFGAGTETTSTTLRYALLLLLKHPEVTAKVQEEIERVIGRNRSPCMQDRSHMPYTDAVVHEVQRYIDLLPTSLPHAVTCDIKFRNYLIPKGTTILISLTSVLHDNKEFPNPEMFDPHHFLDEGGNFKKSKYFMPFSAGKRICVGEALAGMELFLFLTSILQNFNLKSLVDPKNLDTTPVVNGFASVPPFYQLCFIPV

SMILES	CYP1A2 AC50 (half-maximal activity concentration) (human CYP1A2)	CYP2C9 AC50 (half-maximal activity concentration) (human CYP2C9 [1])	CYP2D6 AC50 (half-maximal activity concentration) (human CYP2D6)	AC50 (CYP3A4; [5]) [µM]	CYP2C19 AC50 (half-maximal activity concentration) (human CYP2C19 [2])	AC50 (CYP3A4) [µM]	AC50 (human CYP2C19 [3]; [6]) [µM]	AC50 (human CYP2C9 [4]; [7]) [µM]	CYP1A2 AC50 (half-maximal activity concentration) (human CYP1A2; mean ± standard deviation from three experiments, words = activity call)	AC50 (human CYP2C19 [3]) [µM]	AC50 (human CYP2C9 [4]) [µM]
Clc1cc(Cl)c(-c2c(Cl)c(Cl)cc(Cl)c2Cl)cc1Cl	Inactive	Inactive	Inactive	24.9	Inconclusive activator						
O=C(O)c1cccc(C(=O)O)c1 [1,3-Benzenedicarboxylic acid]	Inactive	Inconclusive activator	Inactive	9.6	Inactive						
CCCCC(C=O)CC (centres unmarked) [2-Ethylhexanal]	Inactive	Inactive	Inactive		Inactive	45.1					
O=C(O)c1cccc(Oc2ccccc2)c1 [3-Phenoxybenzoic acid]	Inactive	Inactive	Inactive		Inactive	35.6					
Cc1ccc(C(=O)O)cc1[N+](=O)[O-] [4-Methyl-3-nitrobenzoic acid]	Inconclusive inhibitor	Inactive	Inactive	35.3	Inactive						
COc1cc(Nc2c(C#N)cnc3cc(OCCCN4CCN(C)CC4)c(OC)cc23)c(Cl)cc1Cl [Bosutinib]	Inactive	Inactive	Inconclusive inhibitor	3.48	Inactive						
O=C(CCCN1CCC(O)(c2ccc(Br)cc2)CC1)c1ccc(F)cc1 [Bromperidol]	Inactive	Inactive	Inconclusive inhibitor	4.92	Inactive						
O=C(NC(=O)c1c(F)cccc1F)Nc1cc(Cl)c(Oc2ncc(C(F)(F)F)cc2Cl)c(Cl)c1 [Chlorfluazuron]	Inactive	Inconclusive inhibitor	Inactive	9.2	Inconclusive inhibitor						
CCSC(=O)N(CC)C1CCCCC1 [Cycloate]	Inactive	Inconclusive inhibitor	Inactive	31.7	Inconclusive inhibitor						
CC(=O)OCC(=O)[C@H]1CC[C@H]2[C@@H]3CCC4=CC(=O)CC[C@]4(C)[C@H]3CC[C@]12C [Deoxycorticosterone acetate]	Inactive		Inconclusive inhibitor	4.07			8.43	5.67			
N#Cc1c(Cl)cccc1Cl [Dichlobenil]	Inconclusive inhibitor	Inconclusive inhibitor	Inactive	17.8	Inactive						
O=S(=O)(c1ccccc1)c1ccccc1 [Diphenylsulfone]	Inactive		Inactive	28.4			41.1	7.39			
CC(=O)[C@H]1CC[C@H]2[C@@H]3C=CC4=CC(=O)CC[C@@]4(C)[C@@H]3CC[C@]12C [Dydrogesterone]	Inactive		Inconclusive inhibitor	4.36			5.49	32.4			
C[C@]12CC[C@@H]3c4ccc(OC(=O)N(CCCl)CCCl)cc4CC[C@H]3[C@@H]1CC[C@@H]2O [Estramustine]	Inactive	Inactive	Inactive	16.9	Inactive						
C#C[C@]1(OC(C)=O)CC[C@H]2[C@@H]3CCC4=C[C@@H](OC(C)=O)CC[C@@H]4[C@H]3CC[C@@]21C [Ethynodiol diacetate]	Inactive		Inactive	3.91			23.7	13.3			
COC(=O)C(C)N(C(=O)c1ccco1)c1c(C)cccc1C (centres unmarked) [Furalaxyl]	Inconclusive inhibitor		Inactive	14.7			13.4	29.5			
CCC1(c2ccccc2)CCC(=O)NC1=O (centres unmarked) [Glutethimide]	Inactive	Inconclusive inhibitor	Inactive	26	Inconclusive inhibitor						
C[C@@H]1CC[C@@]2(OC1)O[C@H]1C[C@H]3[C@@H]4CC[C@H]5C[C@@H](O)CC[C@]5(C)[C@H]4CC(=O)[C@]3(C)[C@H]1[C@@H]2C [Hecogenin]	Inactive	Inactive	Inactive	0.98	Inactive						
O=C(O)CCCc1c[nH]c2ccccc12 [Indole-3-butyric acid]	Inactive	Inactive	Inactive	13.4	Inconclusive inhibitor						
O=C(CCOCCOCCOCCOCCC(=O)Nc1c(I)cc(I)c(C(=O)O)c1I)Nc1c(I)cc(I)c(C(=O)O)c1I [Iodoxamic Acid]	Inactive	Inactive	Inactive		Inactive	5.65 ± 2.66					
CC(=O)O[C@]1(C(C)=O)CC[C@H]2[C@@H]3C=C(C)C4=CC(=O)CC[C@]4(C)[C@H]3CC[C@@]21C [Megestrol acetate]	Inactive		Inactive	2.16			7.2	8.11			
C=C1C[C@H]2[C@@H]3C=C(C)C4=CC(=O)CC[C@]4(C)[C@H]3CC[C@]2(C)[C@@]1(OC(C)=O)C(C)=O [Melengestrol acetate]	Inactive		Inactive	4.92			20.3	16.8			
CCCCCCCCOc1ccc(C(=O)c2ccccc2)c(O)c1 [Octabenzone]	Inconclusive inhibitor		Inactive	26.2			53.3	13.8			
CC(=O)[C@H]1[C@H](C#N)C[C@H]2[C@@H]3CC=C4C[C@@H](O)CC[C@]4(C)[C@H]3CC[C@@]21C [Pregnenolone carbonitrile]	Inactive	Inconclusive inhibitor	Inactive	2.22	Inactive						
CC(C)N(C(=O)SCC(Cl)=C(Cl)Cl)C(C)C [Tri-allate]	Inconclusive inhibitor		Inactive	2.47			10.3	33			
O=P(c1ccccc1)(c1ccccc1)c1ccccc1 [Triphenylphosphine oxide]			Inactive			37 ± 2.51			Inconclusive inhibitor	7.22 ± 1.65	6.87 ± 0.95
ClC(Cl)=C(c1ccc(Cl)cc1)c1ccccc1Cl [o,p'-DDE]	Inactive		Inactive	22.9			6.84	21			
O=C(O)C(c1ccc(Cl)cc1)c1ccc(Cl)cc1 [p,p'-DDA]	Inactive		Inactive	68.4			24.5	15.4			
